Read-outs that look alike come from different tables or passages of the source. Values belong to the compound of their own block, whether it stands above or below them.
How the values were obtained:
D-2 receptor = experiment: 7 OHDPAT-3H specific binding to membranes of CHO cells expressing the D-2 receptor; parameters: species or system rat; conditions: increasing concentrations of radioligand
[1] = target: T1, D-3 receptor expressed in CHO cells (Rattus norvegicus, UniProt P19020); experiment: Inhibition of 125I-iodosulpride binding to membranes of transfected CHO cells (D-3); conditions: for Ratio Ki D-2/Ki D-3: D-2 and D-3 receptors expressed in CHO cells
T1 construct: expressed in transfected cells
T1 sequence (P19020 whole entry): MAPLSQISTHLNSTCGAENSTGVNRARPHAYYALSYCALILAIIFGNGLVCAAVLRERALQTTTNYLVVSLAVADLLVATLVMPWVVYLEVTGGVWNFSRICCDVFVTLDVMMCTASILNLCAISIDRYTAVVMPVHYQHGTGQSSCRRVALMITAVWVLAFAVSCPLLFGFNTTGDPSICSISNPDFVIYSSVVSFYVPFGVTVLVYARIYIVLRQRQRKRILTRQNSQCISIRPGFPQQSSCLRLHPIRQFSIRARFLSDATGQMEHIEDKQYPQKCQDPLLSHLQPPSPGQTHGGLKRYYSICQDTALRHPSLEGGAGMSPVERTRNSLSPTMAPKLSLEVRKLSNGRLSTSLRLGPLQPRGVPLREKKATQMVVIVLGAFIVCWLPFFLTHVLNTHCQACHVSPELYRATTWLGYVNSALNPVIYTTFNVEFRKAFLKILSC
From the text: (§1) As far as the measurement of the affinity of the agonists or antagonists towards the polypeptides of the invention is concerned, it may be made under the following conditions:
(§2) The terms agonists and antagonists refer to the actions of the medicines on the D-2 receptors.
(§3) The β2 adrenergic receptor is excised from pSV β2 -MDH by digestions with HindIII and EcoRI and replaced by a SmaI-EcoRI restriction fragment of the clone of the D-2A receptor by using a blunt-ended HindIII nucleotide adaptor leading to the plasmid pSV D-2. The vector needed to express the D-3 receptor is obtained by replacing the HindIII-BglII restriction fragment of pSV D-2 by a EcoRI-BglII restriction fragment of the clone RT-PCR B, by using a HindIII-EcoRI oligonucleotide adaptor leading to the plasmid pSV D-3. […] The stable transfectants are selected in a culture medium (Dulbecco's Modified Eagle medium) not containing hypoxanthine and thymidine.

[2] = target: T2, D-2 receptor expressed in CHO cells (Rattus norvegicus, UniProt P61169); experiment: Inhibition of 125I-iodosulpride binding to membranes of transfected CHO cells (D-2); conditions: for Kd: saturation kinetics at equilibrium, permanently transfected CHO cells
T2 construct: expressed in transfected cells
T2 sequence (P61169 whole entry): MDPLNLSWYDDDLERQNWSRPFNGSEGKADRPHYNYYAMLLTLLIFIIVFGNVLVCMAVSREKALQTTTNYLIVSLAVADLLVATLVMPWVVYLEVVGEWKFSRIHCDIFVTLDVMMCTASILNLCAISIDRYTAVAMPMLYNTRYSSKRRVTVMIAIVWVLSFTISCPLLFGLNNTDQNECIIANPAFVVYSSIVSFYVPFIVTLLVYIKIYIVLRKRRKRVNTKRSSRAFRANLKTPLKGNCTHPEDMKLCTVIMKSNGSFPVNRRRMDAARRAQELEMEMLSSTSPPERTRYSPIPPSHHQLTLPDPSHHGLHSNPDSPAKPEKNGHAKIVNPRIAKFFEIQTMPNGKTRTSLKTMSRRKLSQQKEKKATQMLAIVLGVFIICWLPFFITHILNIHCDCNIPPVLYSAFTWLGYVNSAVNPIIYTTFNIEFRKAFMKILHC
From the text: as §1, §2, §3

[3] = competition with 125I-iodosulpride, CHO cell membranes, mean ± standard deviation, 2-3 experiments, read-out: Ki Value D-3 receptor
[4] = competition with 125I-iodosulpride, CHO cell membranes, mean ± standard deviation, 2-3 experiments, read-out: Ki Value D-2 receptor

Compound: CCCN(CCC)C1CCc2ccc(O)cc2C1 (stereo not drawn) [7 OHDPAT-^3 H, 7-hydroxy N,N'-dipropylaminotetraline radiolabelled with tritium]
- Binding to membranes of cells expressing the D-2 receptor (D-2 receptor): only very slightly

Compound: CCCN[C@@H]1CCc2c(OC)cccc2[C@@H]1C [(+)AJ 76]
- Comparison of affinities for D-2 and D-3 receptors (in words) [1]: somewhat but significantly higher affinities for the D-3 receptor than the D-2 receptor
- Ratio Ki D-2/Ki D-3 [1]: 3.0
- Ki [1, 3]: 91 ± 5 nM
- Ki [2]: 270 ± 14 nM

Compound: CCCN(CCC)[C@@H]1CCc2c(OC)cccc2[C@@H]1C [(+)UH 232]
- Comparison of affinities for D-2 and D-3 receptors (in words) [1]: somewhat but significantly higher affinities for the D-3 receptor than the D-2 receptor
- Ki [1]: 9.2 ± 0.1 nM
- Ratio Ki D-2/Ki D-3 [1]: 4.4
- Ki [2]: 40 ± 1 nM

Compound: CN1CCc2cccc3c2[C@H]1Cc1ccc(O)c(O)c1-3 [Apomorphine]
- Ki ([1]; read-out: Ki Value D-3 receptor): 20 ± 3 nM

Compound: CC(C)C[C@H]1C(=O)N2CCC[C@H]2[C@]2(O)O[C@](NC(=O)[C@@H]3C=C4c5cccc6[nH]c(Br)c(c56)C[C@H]4N(C)C3)(C(C)C)C(=O)N12 [Bromocriptine]
- Ratio Ki D-2/Ki D-3 [1]: 0.7
- Ki [1, 3]: 7.4 ± 1.3 nM
- Ki [2, 4]: 5.3 ± 0.6 nM

- Effect of Gpp(NH)p on displacement curve, D-2 receptor ([2]; presence of Gpp(NH)p): shifted to the right
Compound: NCCc1ccc(O)c(O)c1 [Dopamine]

Compound: CCCN1C[C@H](CSC)C[C@@H]2c3cccc4[nH]cc(c34)C[C@H]21 [Pergolide]
- Comparison of affinities for D-2 and D-3 receptors (in words) [1]: much less affinity for the D-3 receptor than for the D-2 receptor

Compound: CCN1CCC[C@H]1CNC(=O)c1c(O)c(Cl)cc(Cl)c1OC [Raclopride]
- Ki [1, 3]: 3.5 ± 0.3 nM

Compound: Oc1cc2c(cc1O)C(c1ccccc1)CNCC2 (stereo not drawn) [SKF 38393]
- Ki [1]: 5000 nM

Compound: CN(C)C1CCc2cc(O)c(O)cc2C1 (stereo not drawn) [TL 99]
- Comparison of affinities for D-2 and D-3 receptors (in words) [1]: much less affinity for the D-3 receptor than for the D-2 receptor

- Ki [1, 3]: 1.7 ± 0.1 nM
- Ki [2, 4]: 0.21 ± 0.01 nM
Compound: CN1CCN(CCCN2c3ccccc3Sc3ccc(S(=O)(=O)N(C)C)cc32)CC1 [Thioproperazine]

Compound: Iodosulpride
- Ratio Ki D-2/Ki D-3 [1]: 0.52
- Kd ([1]; saturation kinetics at equilibrium, permanently transfected CHO cells): 1.2 ± 0.2 nM
- Kd [2]: 0.61 ± 0.05 nM
- Kd ([2]; listed as 125 I-iodosulpride): 0.6 nM

From US5407823A, “Polypeptides having a dopaminergic receptor activity, nucleic acids coding for these polypeptides and use of these polypeptides for the screening of substances active on these polypeptides” (priority 1990, dated 1995)
